Patent US12061201B2, “Fluorescent probes for the visualization of FtsZ in gram-positive and gram-negative bacterial pathogens” (Rutgers, The State University of New Jersey, priority 2019, dated 2024)
Read-outs that look alike come from different tables or passages of the source.

What was measured:
Assay in all cases: Fluorescence anisotropy binding of BOFP to FtsZ
[1] = target: T1, Pseudomonas aeruginosa FtsZ (PaFtsZ) (Pseudomonas aeruginosa, UniProt P47204); settings: for Kd: 50 mM Tris-HCl (pH 7.6), 50 mM KCl
T1 sequence (P47204 1-394): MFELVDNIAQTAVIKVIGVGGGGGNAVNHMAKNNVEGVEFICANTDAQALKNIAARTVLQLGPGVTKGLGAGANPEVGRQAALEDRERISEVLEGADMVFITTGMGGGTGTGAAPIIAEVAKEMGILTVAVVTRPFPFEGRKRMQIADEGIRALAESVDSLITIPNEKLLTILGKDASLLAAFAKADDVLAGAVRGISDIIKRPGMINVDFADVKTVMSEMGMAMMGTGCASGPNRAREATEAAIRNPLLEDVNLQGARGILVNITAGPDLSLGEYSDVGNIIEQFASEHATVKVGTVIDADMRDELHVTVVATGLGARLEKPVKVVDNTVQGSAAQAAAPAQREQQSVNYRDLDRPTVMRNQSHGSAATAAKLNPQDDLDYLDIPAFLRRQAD
Experimental: (§1) Fluorescence anisotropy assay for determining the affinities and thermodynamics associated with the binding of BOFP to FtsZ proteins. Fluorescence anisotropy experiments were performed using an AVIV model ATF105 spectrofluorometer at 15, 25, or 37° C. In these experiments, bandwidths were set to 4 nm in both the excitation and emission directions, with the excitation and emission wavelengths being set at 488 nm and 510 nm, respectively. BOFP (0.1 μM) was titrated with increasing concentrations (ranging from 0 to 12 μM) of FtsZ in 120 μL of buffer containing 50 mM Tris-HCl (pH 7.6) and 50 mM KCl. After each protein addition, the samples were equilibrated for 3 minutes, whereupon the fluorescence anisotropy was measured.
(§2) [formula] In this equation, r0 is the anisotropy of the protein-free compound, r∞ is the anisotropy of the compound in the presence of an infinite concentration of FtsZ, [C]tot is the total concentration of the compound, and [P]tot is the total concentration of protein with each addition. These analyses yielded the equilibrium dissociation constant (Kd) for each binding reaction.
(§3) The binding free energy (ΔG) at temperature T was derived from the corresponding Kd value determined at T using the following relationship:
(§4) [formula] The binding enthalpy (ΔH) and entropy (ΔS) were derived from linear fits of the ln(1/Kd) vs. 1/T plots shown in FIGS. 3f and 5e using the following relationship:
(§5) A quartz ultra-micro cell (Hellma) with a 2×5 mm aperture and a 15 mm center height was used for all measurements. The pathlengths in the excitation and emissions directions were 1 and 0.2 cm, respectively. All steady-state anisotropy experiments were conducted in at least triplicate, with the reported anisotropies reflecting the average values.

[2] = target: T2, Enterococcus faecium FtsZ (EfmFtsZ) (Enterococcus faecium, UniProt Q3Y2I1); settings: for Kd: 50 mM Tris-HCl (pH 7.6), 50 mM KCl
T2 sequence (Q3Y2I1 1-413): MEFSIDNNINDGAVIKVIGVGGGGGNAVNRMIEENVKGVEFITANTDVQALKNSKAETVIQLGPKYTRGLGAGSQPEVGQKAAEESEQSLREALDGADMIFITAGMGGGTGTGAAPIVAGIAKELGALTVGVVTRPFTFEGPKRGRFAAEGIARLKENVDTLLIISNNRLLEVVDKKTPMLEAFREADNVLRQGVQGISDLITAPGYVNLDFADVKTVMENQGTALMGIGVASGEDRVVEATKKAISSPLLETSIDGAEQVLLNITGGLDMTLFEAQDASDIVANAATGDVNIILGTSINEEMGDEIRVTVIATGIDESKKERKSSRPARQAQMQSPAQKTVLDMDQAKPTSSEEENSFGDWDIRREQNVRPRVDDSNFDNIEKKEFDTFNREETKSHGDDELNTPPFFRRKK
Experimental: as §1, §2, §3, §4, §5

[3] = target: T3, Acinetobacter baumannii FtsZ (AbFtsZ) (Acinetobacter baumannii, UniProt V5V8B6); settings: for Kd: 50 mM Tris-HCl (pH 7.6), 50 mM KCl
T3 sequence (V5V8B6 1-391): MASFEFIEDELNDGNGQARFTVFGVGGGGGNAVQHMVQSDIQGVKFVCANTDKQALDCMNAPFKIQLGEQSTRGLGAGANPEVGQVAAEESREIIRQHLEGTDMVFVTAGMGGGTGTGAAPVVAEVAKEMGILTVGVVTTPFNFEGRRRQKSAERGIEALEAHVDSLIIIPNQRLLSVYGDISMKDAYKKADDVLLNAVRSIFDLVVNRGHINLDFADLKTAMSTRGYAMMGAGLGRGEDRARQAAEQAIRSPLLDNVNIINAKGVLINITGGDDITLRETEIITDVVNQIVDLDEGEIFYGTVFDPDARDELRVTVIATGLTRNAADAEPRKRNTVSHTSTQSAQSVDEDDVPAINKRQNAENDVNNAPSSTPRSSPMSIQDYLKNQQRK
Experimental: as §1, §2, §3, §4, §5

S. aureus FtsZ (SaFtsZ) = target: T4, S. aureus FtsZ (SaFtsZ) (Staphylococcus aureus, UniProt P0A031)
T4 sequence (P0A031 1-390): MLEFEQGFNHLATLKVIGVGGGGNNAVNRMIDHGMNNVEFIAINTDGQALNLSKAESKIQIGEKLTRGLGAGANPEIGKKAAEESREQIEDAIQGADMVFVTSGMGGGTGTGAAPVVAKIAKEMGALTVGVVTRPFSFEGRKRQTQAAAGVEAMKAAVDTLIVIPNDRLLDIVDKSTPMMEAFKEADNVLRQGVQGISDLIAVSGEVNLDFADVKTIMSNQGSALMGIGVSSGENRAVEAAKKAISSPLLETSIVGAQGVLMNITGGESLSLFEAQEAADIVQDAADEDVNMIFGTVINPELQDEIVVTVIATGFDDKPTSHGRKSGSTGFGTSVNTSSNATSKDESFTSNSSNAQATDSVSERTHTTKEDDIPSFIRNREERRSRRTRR
Experimental: as §1, §2, §3, §4, §5

[4] = target: Streptococcus pyogenes FtsZ (SpyFtsZ) (Streptococcus pyogenes, UniProt Q99YV7); settings: for Kd: 50 mM Tris-HCl (pH 7.6), 50 mM KCl
Experimental: as §1, §2, §3, §4, §5

[5] = linear fit of ln(1/Kd) vs. 1/T, Eq. 3
[6] = SaFtsZ, linear fit of ln(1/Kd) vs. 1/T, Eq. 3

Sequence of Streptococcus pyogenes FtsZ (SpyFtsZ) (Q99YV7 entry or part of it): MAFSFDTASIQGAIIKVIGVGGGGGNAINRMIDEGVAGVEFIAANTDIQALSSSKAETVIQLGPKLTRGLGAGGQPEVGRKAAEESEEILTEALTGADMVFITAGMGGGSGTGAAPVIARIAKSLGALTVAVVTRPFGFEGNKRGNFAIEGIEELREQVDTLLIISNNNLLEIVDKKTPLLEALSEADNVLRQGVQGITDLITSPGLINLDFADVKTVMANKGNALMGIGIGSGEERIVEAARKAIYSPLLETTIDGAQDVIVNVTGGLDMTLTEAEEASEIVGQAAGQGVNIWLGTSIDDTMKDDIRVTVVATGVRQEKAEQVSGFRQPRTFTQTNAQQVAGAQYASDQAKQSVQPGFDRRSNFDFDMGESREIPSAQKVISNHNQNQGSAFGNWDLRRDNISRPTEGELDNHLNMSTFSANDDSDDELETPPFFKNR

CC1=CC(C)=[N+]2C1=Cc1ccc(CCC(=O)OCC(Oc3ccc(F)c(C(N)=O)c3F)c3nc(-c4ccc(C(F)(F)F)cc4)c(Br)o3)n1[B-]2(F)F (stereo not shown) [BOFP, 2-(5-bromo-4-(4-(trifluoromethyl)phenyl)-oxazol-2-yl)-2-(3-carbamoyl-2,4-difluorophenoxy)ethyl 3-(5,5-difluoro-7,9-dimethyl-5H-5λ^4,6λ^4-dipyrrolo[1,2-c:2′,1′-f][1,3,2]diazaborinin-3-yl)propanoate]
ΔH contribution to the observed ΔG of binding [1]: > 50% | Kd ([1]; 15° C., read-out: Kd −15° C.): 230 ± 20 nM | Kd ([1]; 25° C., read-out: Kd −25° C.): 360 ± 60 nM | Kd ([1]; 37° C., read-out: Kd −37° C.): 580 ± 60 nM | ΔG ([1]; T = 310K (37° C.), Eq. 2): -8.8 ± 0.1 kcal/mol | ΔH [1, 5]: -7.7 ± 0.2 kcal/mol | ΔS [1, 5]: +3.8 + 0.6 cal/mol · K | ΔS contribution to the observed ΔG of binding [2]: > 50% | Kd ([2]; 15° C., read-out: Kd −15° C.): 2500 ± 140 nM | Kd ([2]; 25° C., read-out: Kd −25° C.): 2620 ± 80 nM | Kd ([2]; 37° C., read-out: Kd −37° C.): 3140 ± 220 nM | ΔH [2, 5]: -1.9 ± 0.6 kcal/mol | ΔS [2, 5]: +19.2 ± 1.9 cal/mol · K | ΔS contribution to the observed ΔG of binding [3]: > 50% | Kd ([3]; 15° C., read-out: Kd −15° C.): 400 ± 30 nM | Kd ([3]; 25° C., read-out: Kd −25° C.): 550 ± 20 nM | Kd ([3]; 37° C., read-out: Kd −37° C.): 680 ± 40 nM | ΔH [3, 5]: -4.2 ± 0.6 kcal/mol | ΔS [3, 5]: +14.5 ± 2.1 cal/mol · K | Kd (S. aureus FtsZ (SaFtsZ)): 880 to 3140 nM | enthalpic contribution (ΔH) to the observed ΔG of binding (S. aureus FtsZ (SaFtsZ); SaFtsZ): 100% | Kd (S. aureus FtsZ (SaFtsZ); SaFtsZ, 15° C., 50 mM Tris-HCl (pH 7.6), 50 mM KCl, read-out: Kd −15° C.): 880 ± 80 nM | Kd (S. aureus FtsZ (SaFtsZ); SaFtsZ, 25° C., 50 mM Tris-HCl (pH 7.6), 50 mM KCl, read-out: Kd −25° C.): 1660 ± 120 nM | Kd (S. aureus FtsZ (SaFtsZ); SaFtsZ, 37° C., 50 mM Tris-HCl (pH 7.6), 50 mM KCl, read-out: Kd −37° C.): 3140 ± 130 nM | ΔG (S. aureus FtsZ (SaFtsZ); SaFtsZ, T = 310K (37° C.), Eq. 2): -7.8 ± 0.1 kcal/mol | ΔH (S. aureus FtsZ (SaFtsZ); [6]): -10.2 ± 0.3 kcal/mol | ΔS (S. aureus FtsZ (SaFtsZ); [6]): −7.8 ± 1.0 cal/mol · K | ΔH contribution to the observed ΔG of binding [4]: > 50% | Kd ([4]; 15° C., read-out: Kd −15° C.): 910 ± 60 nM | Kd ([4]; 25° C., read-out: Kd −25° C.): 1310 ± 80 nM | Kd ([4]; 37° C., read-out: Kd −37° C.): 1550 ± 80 nM | ΔG ([4]; T = 310K (37° C.), Eq. 2): -8.2 ± 0.1 kcal/mol | ΔH [4, 5]: -4.3 ± 1.1 kcal/mol | ΔS [4, 5]: +12.8 ± 3.7 cal/mol · K
